The values that follow come from PubChem BioAssay (NCI).

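Cells were grown in 96-well plates and exposed to each compound for 48 hours at five concentrations; endpoints were interpolated linearly between bracketing concentrations, or set to the highest concentration if not reached. Here, GI50 denotes the concentration required for 50% inhibition of growth. TGI marks complete inhibition of growth.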 Some results are limits rather than exact numbers.

What all share (assay): inhibition of tumour cell growth, NCI panel, 48 h
Experiment [1] relates to RPMI-8226 leukemia.
Experiment [2] concerns MDA-MB-435.
Experiment [3] has as its system MOLT-4 leukemia.
Experiment [4] relates to EKVX NSCLC.
The subject of experiment [5] is 786-0 renal.
Experiment [6] relates to NCI-H522 lung.
Experiment [7] has as its system MDA-MB-231 breast.
The subject of experiment [8] is IGROV1 ovarian.
Experiment [9] has as its system SN12C renal.
The subject of experiment [10] is CCRF-CEM leukemia.

As for `CO/N=C(/C)c1cccc(Nc2cc(-n3nnc4ccccc43)nc3ccccc23)c1`, the GI50 is 15.1 µM in experiment [1]; 14.8 µM in [2]; 7.18 µM in experiment [3]; 27.3 µM in [4]; 45.5 µM in experiment [5]; more than 100 µM in experiment [6]. Moreover, the GI50 is 7.55 µM in [7], more than 100 µM in experiment [8], 32.8 µM in [9] and 20.7 µM in experiment [10]. In addition, the TGI in experiment [1] was more than 100 µM; in experiment [2] it was 39.4 µM; in experiment [3] it was more than 100 µM; in [4], 86.2 µM; in [5] it was more than 100 µM; in experiment [6], more than 100 µM. For the same molecule, the TGI in experiment [7] is 60.2 µM; in experiment [8], more than 100 µM; in [9], more than 100 µM; in experiment [10], more than 100 µM.

As to `COc1ccc(OC)c2c1[nH]c(=O)c1c3ccccc3cn21`, the GI50 in experiment [1] is 1.07 µM; in [2] it was 1.62 µM; in experiment [3], 0.581 µM; in experiment [4], 1.34 µM; in [5], 1.88 µM; in experiment [6], 1.7 µM. In addition, the GI50 was 1.4 µM in experiment [7], less than 0.0281 µM in experiment [8], 1.23 µM in [9] and 1.17 µM in [10]. The TGI in experiment [1] amounted to 3.21 µM; in experiment [2], 3.13 µM; in experiment [3], 2.3 µM; in experiment [4], 3.76 µM; in experiment [5], 3.34 µM; in [6], 3.48 µM. The TGI in experiment [7] came to 2.86 µM; in experiment [8], 1.43 µM; in experiment [9] it was 2.58 µM; in experiment [10], 3.81 µM.

As to `CN1CCN(C2CCN(C(=O)Nc3cc(Oc4ccc(NC(=O)C5(C(=O)Nc6ccc(F)cc6)CC5)c(F)c4)ccn3)CC2)CC1`, the GI50 in experiment [1] is 1.62 µM; in [2], 0.918 µM; in [3], 0.803 µM; in experiment [4], more than 1.99 µM; in experiment [5], 1.67 µM; in experiment [7] it was 0.981 µM. For the same molecule, the GI50 in [8] was 1.1 µM; in [9], 0.855 µM; in experiment [10], 1.26 µM. For the same molecule, the TGI in [1] was more than 2.63 µM; in experiment [2] it was more than 3.27 µM; in [3] it was more than 2.7 µM; in experiment [4], more than 8.76 µM; in [5], more than 10 µM; in experiment [6], more than 2.66 µM. The TGI in experiment [7] was more than 7 µM; in [8] it was more than 10 µM; in [9] it was more than 7.82 µM; in [10], more than 5.7 µM.

Take `Oc1ccc(Nc2ncnc3c2sc2ncccc23)cc1`: the GI50 in experiment [1] was 0.0485 µM; in experiment [2], 0.0403 µM; in experiment [3] it was 0.0527 µM; in [4], 0.097 µM; in experiment [5] it was less than 0.01 µM; in experiment [6], 0.0369 µM. Further, the GI50 in experiment [7] is more than 100 µM; in experiment [8] it was more than 23.8 µM; in experiment [9] it was 0.244 µM; in experiment [10] it was 0.0307 µM. The TGI in [1] is more than 100 µM; in experiment [2], more than 100 µM; in experiment [3], more than 45.5 µM; in experiment [4], more than 100 µM; in experiment [6], more than 100 µM; in experiment [7], more than 100 µM. The TGI in [8], in experiment [9] and in experiment [10] was more than 100 µM each time.

As for `c1ccc(-c2nnc(-c3ccccn3)s2)nc1`, the GI50 in experiment [1], in experiment [2], in experiment [3], in [4], in [5] and in experiment [6] was more than 100 µM in each case. The GI50 in experiment [7] was 72.5 µM; in [8] it was 27.3 µM; in experiment [9] it was more than 100 µM; in [10] it was more than 100 µM. Moreover, the TGI in experiment [1], in [2], in experiment [3], in [4], in experiment [5] and in [6] was more than 100 µM each time. For the same molecule, the TGI in experiment [7], in experiment [8], in experiment [9] and in experiment [10] was more than 100 µM in each case.

Consider `NC(N)=N/N=C/c1c(-c2ccsc2)nc2sccn12`, for which the GI50 in experiment [1] was 4.83 µM; in [2], 14.6 µM; in experiment [3], 10.8 µM; in [4], 15.1 µM; in experiment [5], 12 µM; in [6], 12.2 µM. Moreover, the values for the GI50 in [7], in experiment [9] and in experiment [10] were 16.6 µM, 15.7 µM and 1.48 µM, respectively. Besides, the TGI was found to be 20.7 µM in experiment [1]; 27.7 µM in [2]; 39 µM in [3]; 29.4 µM in experiment [4]; 24.3 µM in experiment [5]; 30.5 µM in experiment [6]. For the same molecule, the TGI in experiment [7] came to 30.9 µM; in experiment [9], 29.7 µM; in [10], 6.07 µM.

For `C=C1C(=O)OC2CC(C)C(C(CC(C)=O)OC(C)=O)=CCC12` (stereo unspecified), the TGI in [1] is 21.6 µM; in [2], 33 µM; in experiment [3] it was 20.4 µM; in experiment [4] it was 26.6 µM; in experiment [5], 9.65 µM; in [6], 3.27 µM. Also, the TGI in experiment [7] is 27.2 µM; in experiment [8], 29 µM; in experiment [9], 15 µM; in experiment [10] it was more than 35 µM.

`CC1(C)S[C@@H]2[C@H](NC(=O)C3(N)CCCCC3)C(=O)N2[C@H]1C(=O)O`: the TGI in experiment [1], in experiment [2], in [3], in [4], in [5] and in experiment [6] was more than 100 µM each time. For the same molecule, the TGI in experiment [7], in experiment [8], in experiment [9] and in experiment [10] was more than 100 µM each time.
